Results published in ChEMBL document CHEMBL3414453, “Design and optimization of hybrid of 2,4-diaminopyrimidine and arylthiazole scaffold as anticancer cell proliferation and migration agents” (Eur J Med Chem, 2015).
pIC50: −log10 of the molar value.

What was measured:
MCF7 = assay: Cytotoxicity against human MCF7 cells assessed as growth inhibition after 48 hrs by sulforhodamine B assay; format: functional, cell-based; settings: MCF7, 48 h
MDA-MB-231 = assay: Cytotoxicity against human MDA-MB-231 cells assessed as growth inhibition after 48 hrs by sulforhodamine B assay; format: functional, cell-based; settings: MDA-MB-231, 48 h

**Q.** How did the pIC50 (MCF7) turn out when `Cc1nc(Nc2ncc(C(=O)Nc3c(C)cccc3Cl)s2)cc(N2CCN(CCO)CC2)n1` [DASATINIB] was run?
**A.** 5.09

**Q.** What about the pIC50 (MDA-MB-231) of the same compound?
**A.** 5.95
